Assay results published in patent publication US7745645B2, “Sulfonamide derivatives of xanthene compounds” (Pierce Biotechnology, Inc., priority 2007, dated 2010).

System: A549 cells
Test: High Content Screening measurement of p53 induction
Format: cell-based
Conditions: 5 μM camptothecin, 18-20 hours
Experimental: Any of the above described compounds are conjugated to antibodies and used for HCS measurement of p53 induction. A549 cells are seeded at 5,000 cells/well on 96 well microplates one day before treating them with different concentrations of camptothecin. In the presence of the drug, cells are incubated for 18-20 hours at 37° C., 5% CO2 in a humidified incubator. Cells are then fixed with 4% paraformaldehyde, permeabilized with 0.1% Triton X-100, and then labeled with rabbit p53 primary antibody and goat-anti-rabbit-conjugate of one of the above-described compounds. Cell nuclei are labeled with Hoechst 33342. The samples are imaged and quantitatively analyzed on an ArrayScan® HCS Reader (Cellomics, Inc. Pittsburgh Pa.). […] Camptothecin treated cells show bright p53 labeling in the nuclei.

CC[C@@]1(O)C(=O)OCc2c1cc1n(c2=O)Cc2cc3ccccc3nc2-1 [camptothecin]
p53 induction (fluorescence images): p53 induction in the nucleus
